What was measured:
[1] = system: Ctenocephalides felis (flea), Ixodidae (tick), and Aedes aegypti (mosquito); assay: Bio-profiling of C1 racemate and enantiomers, overall conclusions of contact and ingestion assays; details: for potency against ticks: adult ticks, contact assays
Description: 1-[6-[5-(3,5-dichloro-4-fluoro-phenyl)-5-(trifluoromethyl)-4H-isothiazol-3-yl]spiro[1H-isobenzofuran-3,3′-azetidine]-1′-yl]-3,3,3-trifluoro-propan-1-one (referred to herein as C1 racemate) is an isothiazoline compound consisting of two isomers: (R)-1-[6-[5-(3,5-dichloro-4-fluoro-phenyl)-5-(trifluoromethyl)-4H-isothiazol-3-yl]spiro[1H-isobenzofuran-3,3′-azetidine]-1′-yl]-3,3,3-trifluoro-propan-1-one (referred herein as C1 (R) enantiomer) and (S)-1-[6-[5-(3,5-dichloro-4-fluoro-phenyl)-5-(trifluoromethyl)-4H-isothiazol-3-yl]spiro[1H-isobenzofuran-3,3′-azetidine]-1′-yl]-3,3,3-trifluoro-propan-1-one (referred to herein as C1 (S) enantiomer). The racemic compound and the two enantiomers were tested against adult stages of Ctenocephalides felis (flea) Ixodidae (tick), and Aedes aegypti (mosquito). The compounds were solubilized in DMSO or an acetone/triton solution and dose response curves were generated for the individual compounds.
For evaluation of contact activity, coated-substrate (flea) and coated-vial (tick and mosquito) assay procedures were used. For evaluation of flea ingestion activity, an artificial feeding assay procedure was used. Insecticidal activity was evaluated at various time-points for each assay. Dose response curves were generated in duplicate on three independent test occasions (Trial 1-Trial 3) and EC50 and EC90 values were calculated.
Therefore, mortality correction was not performed in the assays. Calculation of EC50 and EC90 values was performed using XLfit. Both EC50 and EC90 values were calculated using the average of the two replicates for each Trial.
The C1 (R) enantiomer, C1 (S) enantiomer, and the C1 racemate were successfully evaluated against flea, tick, and mosquito contact and ingestion in vitro screening assays.

Ctenocephalides felis = assay: In vitro ingestion activity against fleas (artificial feeding, bovine blood); details: for mortality at 0.003 ppm: Trial 3, dose 0.003 ppm; for mortality at 0.012 ppm: Trial 3, dose 0.012 ppm; for mortality at 0.049 ppm: Trial 3, dose 0.049 ppm; for mortality at 0.2 ppm: Trial 3, dose 0.20 ppm; for mortality at 0.78 ppm: Trial 3, dose 0.78 ppm; for mortality at 3.125 ppm: Trial 3, dose 3.125 ppm; for mortality at 12.5 ppm: Trial 3, dose 12.5 ppm; for mortality at 50 ppm: Trial 3, dose 50 ppm
Method: Ctenocephalides felis (Avista Pharma, Inc., RTP, NC), 1-7days post hatch, held in an environmental chamber at 24° C., 85% humidity.
For flea ingestion tests, serial dilutions of the compound stock were performed using DMSO to achieve the desired range for EC50 and EC90 determination. An aliquot of each compound dilution was added to organic bovine blood with a final DMSO concentration of 0.5% and placed in an artificial feeding container.
Compounds tested were C1 racemate, the C1 (R) enantiomer, and the C1 (S) enantiomer. For Trial 3, the C1 (R) enantiomer and the C1 (S) enantiomer were further chiral purified to achieve >99% purity.
For both contact and ingestion assays, ten newly emerged unfed adult fleas, 0-7 days old Ctenocephalides felis, from a laboratory colony, were aspirated into each vial or cage. The test vials for contact assays were held in an environmental chamber at 24° C., 80% humidity with light/dark cycles (12 hours each). The cages for flea ingestion assays were held in a temperature-controlled artificial feeding apparatus to allow continual access to organic bovine blood containing the desired concentration of compound. Fresh aliquots of compound-spiked bovine blood were provided daily for the duration of the study.
Fleas were evaluated for percent mortality at various time points between 2 hours and 48 hours post infestation. Fleas showing normal movement and/or jumping ability were considered viable and those showing no movement after tapping the vials were scored as dead.

## O=C(CC(F)(F)F)N1CC2(C1)OCc1cc(C3=NSC(c4cc(Cl)c(F)c(Cl)c4)(C(F)(F)F)C3)ccc12 (racemic) [C1 racemate, 1-[6-[5-(3,5-dichloro-4-fluoro-phenyl)-5-(trifluoromethyl)-4H-isothiazol-3-yl]spiro[1H-isobenzofuran-3,3′-azetidine]-1′-yl]-3,3,3-trifluoro-propan-1-one]
[1]
  potency against ticks: excellent potency against ticks
Ctenocephalides felis; 6 h, Rep1
  mortality at 0.003 ppm: 0%
  mortality at 0.012 ppm: 0%
  mortality at 0.049 ppm: 0%
  mortality at 0.2 ppm: 10%
  mortality at 0.78 ppm: 70%
  mortality at 3.125 ppm: 90%
  mortality at 12.5 ppm: 90%
  mortality at 50 ppm: 90%
Ctenocephalides felis; 6 h, Rep2
  mortality at 0.003 ppm: 0%
  mortality at 0.012 ppm: 0%
  mortality at 0.049 ppm: 0%
  mortality at 0.2 ppm: 10%
  mortality at 0.78 ppm: 90%
  mortality at 3.125 ppm: 70%
  mortality at 12.5 ppm: 100%
  mortality at 50 ppm: 70%
Ctenocephalides felis; 24 h, Rep1
  mortality at 0.003 ppm: 0%
  mortality at 0.012 ppm: 0%
  mortality at 0.049 ppm: 0%
  mortality at 0.2 ppm: 30%
  mortality at 0.78 ppm: 90%
  mortality at 3.125 ppm: 90%
  mortality at 12.5 ppm: 90%
  mortality at 50 ppm: 90%
Ctenocephalides felis; 24 h, Rep2
  mortality at 0.003 ppm: 0%
  mortality at 0.012 ppm: 0%
  mortality at 0.049 ppm: 10%
  mortality at 0.2 ppm: 80%
  mortality at 0.78 ppm: 90%
  mortality at 3.125 ppm: 90%
  mortality at 12.5 ppm: 100%
  mortality at 50 ppm: 80%
Ctenocephalides felis; 48 h, Rep1
  mortality at 0.003 ppm: 0%
  mortality at 0.012 ppm: 0%
  mortality at 0.049 ppm: 10%
  mortality at 0.2 ppm: 80%
  mortality at 0.78 ppm: 90%
  mortality at 3.125 ppm: 90%
  mortality at 12.5 ppm: 90%
  mortality at 50 ppm: 90%
Ctenocephalides felis; 48 h, Rep2
  mortality at 0.003 ppm: 0%
  mortality at 0.012 ppm: 0%
  mortality at 0.049 ppm: 10%
  mortality at 0.2 ppm: 80%
  mortality at 0.78 ppm: 100%
  mortality at 3.125 ppm: 100%
  mortality at 12.5 ppm: 100%
  mortality at 50 ppm: 90%

## O=C(CC(F)(F)F)N1CC2(C1)OCc1cc(C3=NS[C@](c4cc(Cl)c(F)c(Cl)c4)(C(F)(F)F)C3)ccc12 [C1 (R) enantiomer, (R)-1-[6-[5-(3,5-dichloro-4-fluoro-phenyl)-5-(trifluoromethyl)-4H-isothiazol-3-yl]spiro[1H-isobenzofuran-3,3′-azetidine]-1′-yl]-3,3,3-trifluoro-propan-1-one]
Ctenocephalides felis; 6 h, Rep1
  mortality at 0.003 ppm: 0%
  mortality at 0.012 ppm: 0%
  mortality at 0.049 ppm: 0%
  mortality at 0.2 ppm: 0%
  mortality at 0.78 ppm: 0%
  mortality at 3.125 ppm: 0%
  mortality at 12.5 ppm: 80%
  mortality at 50 ppm: 100%
Ctenocephalides felis; 6 h, Rep2
  mortality at 0.003 ppm: 0%
  mortality at 0.012 ppm: 0%
  mortality at 0.049 ppm: 0%
  mortality at 0.2 ppm: 0%
  mortality at 0.78 ppm: 0%
  mortality at 3.125 ppm: 20%
  mortality at 12.5 ppm: 40%
  mortality at 50 ppm: 100%
Ctenocephalides felis; 24 h, Rep1
  mortality at 0.003 ppm: 0%
  mortality at 0.012 ppm: 0%
  mortality at 0.049 ppm: 0%
  mortality at 0.2 ppm: 0%
  mortality at 0.78 ppm: 0%
  mortality at 3.125 ppm: 0%
  mortality at 12.5 ppm: 80%
  mortality at 50 ppm: 100%
Ctenocephalides felis; 24 h, Rep2
  mortality at 0.003 ppm: 0%
  mortality at 0.012 ppm: 0%
  mortality at 0.049 ppm: 0%
  mortality at 0.2 ppm: 0%
  mortality at 0.78 ppm: 0%
  mortality at 3.125 ppm: 0%
  mortality at 12.5 ppm: 40%
  mortality at 50 ppm: 100%
Ctenocephalides felis; 48 h, Rep1
  mortality at 0.003 ppm: 0%
  mortality at 0.012 ppm: 0%
  mortality at 0.049 ppm: 0%
  mortality at 0.2 ppm: 0%
  mortality at 0.78 ppm: 0%
  mortality at 3.125 ppm: 0%
  mortality at 12.5 ppm: 90%
  mortality at 50 ppm: 100%
Ctenocephalides felis; 48 h, Rep2
  mortality at 0.003 ppm: 0%
  mortality at 0.012 ppm: 0%
  mortality at 0.049 ppm: 0%
  mortality at 0.2 ppm: 0%
  mortality at 0.78 ppm: 0%
  mortality at 3.125 ppm: 0%
  mortality at 12.5 ppm: 60%
  mortality at 50 ppm: 100%

## O=C(CC(F)(F)F)N1CC2(C1)OCc1cc(C3=NS[C@@](c4cc(Cl)c(F)c(Cl)c4)(C(F)(F)F)C3)ccc12 [C1 (S) enantiomer, (S)-1-[6-[5-(3,5-dichloro-4-fluoro-phenyl)-5-(trifluoromethyl)-4H-isothiazol-3-yl]spiro[1H-isobenzofuran-3,3′-azetidine]-1′-yl]-3,3,3-trifluoro-propan-1-one]
[1]
  potency against ticks: excellent potency against ticks
[1]; flea, tick and mosquito contact and ingestion assays, Trials 1-3
  which enantiomer carries the biological activity of the C1 racemate: primarily be associated with the C1 (S) enantiomer
Ctenocephalides felis; 6 h, Rep1
  mortality at 0.003 ppm: 0%
  mortality at 0.012 ppm: 0%
  mortality at 0.049 ppm: 0%
  mortality at 0.2 ppm: 10%
  mortality at 0.78 ppm: 80%
  mortality at 3.125 ppm: 100%
  mortality at 12.5 ppm: 100%
  mortality at 50 ppm: 100%
Ctenocephalides felis; 6 h, Rep2
  mortality at 0.003 ppm: 0%
  mortality at 0.012 ppm: 0%
  mortality at 0.049 ppm: 0%
  mortality at 0.2 ppm: 20%
  mortality at 0.78 ppm: 70%
  mortality at 3.125 ppm: 60%
  mortality at 12.5 ppm: 100%
  mortality at 50 ppm: 100%
Ctenocephalides felis; 24 h, Rep1
  mortality at 0.003 ppm: 0%
  mortality at 0.012 ppm: 0%
  mortality at 0.049 ppm: 20%
  mortality at 0.2 ppm: 10%
  mortality at 0.78 ppm: 100%
  mortality at 3.125 ppm: 100%
  mortality at 12.5 ppm: 100%
  mortality at 50 ppm: 100%
Ctenocephalides felis; 24 h, Rep2
  mortality at 0.003 ppm: 0%
  mortality at 0.012 ppm: 0%
  mortality at 0.049 ppm: 10%
  mortality at 0.2 ppm: 50%
  mortality at 0.78 ppm: 90%
  mortality at 3.125 ppm: 80%
  mortality at 12.5 ppm: 100%
  mortality at 50 ppm: 100%
Ctenocephalides felis; 48 h, Rep1
  mortality at 0.003 ppm: 0%
  mortality at 0.012 ppm: 0%
  mortality at 0.049 ppm: 20%
  mortality at 0.2 ppm: 30%
  mortality at 0.78 ppm: 100%
  mortality at 3.125 ppm: 100%
  mortality at 12.5 ppm: 100%
  mortality at 50 ppm: 100%
Ctenocephalides felis; 48 h, Rep2
  mortality at 0.003 ppm: 0%
  mortality at 0.012 ppm: 0%
  mortality at 0.049 ppm: 20%
  mortality at 0.2 ppm: 70%
  mortality at 0.78 ppm: 90%
  mortality at 3.125 ppm: 100%
  mortality at 12.5 ppm: 100%
  mortality at 50 ppm: 100%
